Measurements reported in ChEMBL document CHEMBL2177025, “Chemical proteomics-based analysis of off-target binding profiles for rosiglitazone and pioglitazone: clues for assessing potential for cardiotoxicity” (J Med Chem, 2012).
One block for each compound: values may come before it. Activity calls are given as the source filed them. The rule behind the calls is not given here.

Assays:
[1] = target: Inactive tyrosine-protein kinase transmembrane receptor ROR1 (Mus musculus) (UniProt Q9Z139); experiment: Binding affinity to mouse tyrosine-protein kinase transmembrane receptor ROR1 by chromatographic analysis
[2] = target: ATP synthase F(1) complex subunit alpha, mitochondrial (Rattus norvegicus) (UniProt P15999); experiment: Binding affinity to mitochondrial ATP synthase alpha chain in Sprague-Dawley rat heart homogenate after 15 mins by chromatographic analysis; type: tissue-based
[3] = target: Cyclic AMP-dependent transcription factor ATF-2 (Mus musculus) (UniProt P16951); experiment: Binding affinity to mouse cyclic AMP-dependent transcription factor ATF-2 by chromatographic analysis
[4] = target: Citrate synthase, mitochondrial (Mus musculus) (UniProt Q9CZU6); experiment: Binding affinity to mouse mitochondrial citrate synthase by chromatographic analysis relative to rosiglitazone
[5] = target: Creatine kinase M-type (Rattus norvegicus) (UniProt P00564); experiment: Binding affinity to creatine kinase M-type in Sprague-Dawley rat heart homogenate after 15 mins by chromatographic analysis relative to rosiglitazone; type: tissue-based
[6] = target: Triosephosphate isomerase (Rattus norvegicus) (UniProt P48500); experiment: Binding affinity to triosephosphate isomerase in Sprague-Dawley rat heart homogenate after 15 mins by chromatographic analysis relative to rosiglitazone; type: tissue-based
[7] = target: Ras/Rap GTPase-activating protein SynGAP (Rattus norvegicus) (UniProt Q9QUH6); experiment: Binding affinity to RasGTPase-activating protein SynGAP in Sprague-Dawley rat heart homogenate after 15 mins by chromatographic analysis relative to pioglitazone; type: tissue-based
[8] = target: Neurofibromin (Mus musculus) (UniProt Q04690); experiment: Binding affinity to mouse neurofibromin by chromatographic analysis relative to pioglitazone
[9] = target: Hemopexin (Rattus norvegicus) (UniProt P20059); experiment: Binding affinity to hemopexin precursor in Sprague-Dawley rat heart homogenate after 15 mins by chromatographic analysis; type: tissue-based
[10] = target: Creatine kinase B-type (Rattus norvegicus) (UniProt P07335); experiment: Binding affinity to creatine kinase B-type in Sprague-Dawley rat heart homogenate after 15 mins by chromatographic analysis; type: tissue-based
[11] = target: Trace amine-associated receptor 7b (Rattus norvegicus) (UniProt Q923X8); experiment: Binding affinity to trace amine-associated receptor 7b in Sprague-Dawley rat heart homogenate after 15 mins by chromatographic analysis; type: tissue-based
[12] = target: Interleukin-12 subunit beta (Mus musculus) (UniProt P43432); experiment: Binding affinity to mouse interleukin-12 beta chain precursor by chromatographic analysis
[13] = target: Aspartate aminotransferase, mitochondrial (Rattus norvegicus) (UniProt P00507); experiment: Binding affinity to mitochondrial aspartate aminotransferase in Sprague-Dawley rat heart homogenate after 15 mins by chromatographic analysis; type: tissue-based
[14] = target: Phosphoglycerate kinase 1 (Rattus norvegicus) (UniProt P16617); experiment: Binding affinity to Phosphoglycerate kinase 1 in Sprague-Dawley rat heart homogenate after 15 mins by chromatographic analysis; type: tissue-based
[15] = target: 2-oxoglutarate dehydrogenase complex component E1 (Mus musculus) (UniProt Q60597); experiment: Binding affinity to mouse mitochondrial 2-oxoglutarate dehydrogenase E1 component by chromatographic analysis
[16] = target: Glyceraldehyde-3-phosphate dehydrogenase (Rattus norvegicus) (UniProt P04797); experiment: Binding affinity to glyceraldehyde 3-phosphate dehydrogenase in Sprague-Dawley rat heart homogenate after 15 mins by chromatographic analysis; type: tissue-based
[17] = target: L-lactate dehydrogenase B chain (Rattus norvegicus) (UniProt P42123); experiment: Binding affinity to L-lactate dehydrogenase B chain in Sprague-Dawley rat heart homogenate after 15 mins by chromatographic analysis relative to rosiglitazone; type: tissue-based
[18] = target: Septin-9 (Rattus norvegicus) (UniProt Q9QZR6); experiment: Binding affinity to septin-9 in Sprague-Dawley rat heart homogenate after 15 mins by chromatographic analysis relative to pioglitazone; type: tissue-based
[19] = target: T1, Cardiotrophin-like cytokine factor 1 (Mus musculus) (UniProt Q9QZM3); experiment: Binding affinity to mouse cardiotrophin-like cytokine factor 1 precursor by chromatographic analysis relative to pioglitazone
T1 sequence (whole entry): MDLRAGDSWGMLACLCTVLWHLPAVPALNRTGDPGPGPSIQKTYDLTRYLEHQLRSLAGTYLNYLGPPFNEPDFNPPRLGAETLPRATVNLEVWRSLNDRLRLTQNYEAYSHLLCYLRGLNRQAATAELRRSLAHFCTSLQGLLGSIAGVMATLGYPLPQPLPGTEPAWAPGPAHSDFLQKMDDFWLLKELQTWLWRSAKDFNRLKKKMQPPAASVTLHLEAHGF

[20] = target: Fanconi anemia group M protein homolog (Mus musculus) (UniProt Q8BGE5); experiment: Binding affinity to mouse Fanconi anemia group M protein homologue by chromatographic analysis relative to pioglitazone
[21] = target: Selenocysteine insertion sequence-binding protein 2 (Rattus norvegicus) (UniProt Q9QX72); experiment: Binding affinity to SECIS-binding protein 2 in Sprague-Dawley rat heart homogenate after 15 mins by chromatographic analysis relative to pioglitazone; type: tissue-based
[22] = target: Rab11 family-interacting protein 4 (Mus musculus) (UniProt Q8BQP8); experiment: Binding affinity to mouse Rab11 family interacting protein 4 by chromatographic analysis relative to pioglitazone
[23] = target: Prolactin-3B1 (Rattus norvegicus) (UniProt P09321); experiment: Binding affinity to chorionic somatomammotropin hormone 2 precursor in Sprague-Dawley rat heart homogenate after 15 mins by chromatographic analysis relative to pioglitazone; type: tissue-based
[24] = target: Cyclin-dependent kinase 7 (Mus musculus) (UniProt Q03147); experiment: Binding affinity to mouse cell division protein kinase 7 by chromatographic analysis
[25] = target: Hepatocyte nuclear factor 6 (Mus musculus) (UniProt O08755); experiment: Binding affinity to mouse hepatocyte nuclear factor 6 by chromatographic analysis
[26] = target: Kinesin light chain 1 (Rattus norvegicus) (UniProt P37285); experiment: Binding affinity to Kinesin light chain 1 in Sprague-Dawley rat heart homogenate after 15 mins by chromatographic analysis; type: tissue-based
[27] = target: Malate dehydrogenase, cytoplasmic (Mus musculus) (UniProt P14152); experiment: Binding affinity to mouse cytoplasmic malate dehydrogenase by chromatographic analysis
[28] = target: Malate dehydrogenase, mitochondrial (Rattus norvegicus) (UniProt P04636); experiment: Binding affinity to mitochondrial malate dehydrogenase in Sprague-Dawley rat heart homogenate after 15 mins by chromatographic analysis; type: tissue-based
Chain of Malate dehydrogenase, mitochondrial (Rattus norvegicus) (P04636 whole entry): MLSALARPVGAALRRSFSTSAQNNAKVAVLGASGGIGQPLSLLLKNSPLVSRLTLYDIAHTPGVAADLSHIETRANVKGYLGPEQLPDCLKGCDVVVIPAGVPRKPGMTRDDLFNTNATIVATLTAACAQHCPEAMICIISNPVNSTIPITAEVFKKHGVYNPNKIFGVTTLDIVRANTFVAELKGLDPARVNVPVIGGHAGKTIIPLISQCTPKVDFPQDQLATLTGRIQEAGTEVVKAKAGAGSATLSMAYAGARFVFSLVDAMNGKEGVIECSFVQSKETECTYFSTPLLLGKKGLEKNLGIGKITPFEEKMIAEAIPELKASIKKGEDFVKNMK

Chain of L-lactate dehydrogenase B chain (Rattus norvegicus) (P42123 whole entry): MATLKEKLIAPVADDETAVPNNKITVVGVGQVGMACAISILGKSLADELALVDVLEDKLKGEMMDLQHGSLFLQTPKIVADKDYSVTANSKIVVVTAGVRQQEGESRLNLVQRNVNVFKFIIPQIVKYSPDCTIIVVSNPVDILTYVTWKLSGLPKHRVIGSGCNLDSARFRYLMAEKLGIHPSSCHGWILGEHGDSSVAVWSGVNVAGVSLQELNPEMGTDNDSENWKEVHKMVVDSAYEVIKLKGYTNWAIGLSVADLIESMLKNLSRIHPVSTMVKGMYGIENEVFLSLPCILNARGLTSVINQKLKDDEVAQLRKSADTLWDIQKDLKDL
Chain of Glyceraldehyde-3-phosphate dehydrogenase (Rattus norvegicus) (P04797 whole entry): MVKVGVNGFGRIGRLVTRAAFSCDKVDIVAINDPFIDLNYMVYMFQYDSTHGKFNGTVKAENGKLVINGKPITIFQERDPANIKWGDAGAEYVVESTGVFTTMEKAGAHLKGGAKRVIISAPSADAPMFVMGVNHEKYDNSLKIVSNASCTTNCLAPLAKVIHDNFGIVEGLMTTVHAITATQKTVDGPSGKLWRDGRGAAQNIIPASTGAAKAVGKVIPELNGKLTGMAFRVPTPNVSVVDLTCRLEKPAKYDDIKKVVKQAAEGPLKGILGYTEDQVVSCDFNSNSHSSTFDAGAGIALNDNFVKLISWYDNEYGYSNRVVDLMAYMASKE
Chain of Ras/Rap GTPase-activating protein SynGAP (Rattus norvegicus) (Q9QUH6 whole entry): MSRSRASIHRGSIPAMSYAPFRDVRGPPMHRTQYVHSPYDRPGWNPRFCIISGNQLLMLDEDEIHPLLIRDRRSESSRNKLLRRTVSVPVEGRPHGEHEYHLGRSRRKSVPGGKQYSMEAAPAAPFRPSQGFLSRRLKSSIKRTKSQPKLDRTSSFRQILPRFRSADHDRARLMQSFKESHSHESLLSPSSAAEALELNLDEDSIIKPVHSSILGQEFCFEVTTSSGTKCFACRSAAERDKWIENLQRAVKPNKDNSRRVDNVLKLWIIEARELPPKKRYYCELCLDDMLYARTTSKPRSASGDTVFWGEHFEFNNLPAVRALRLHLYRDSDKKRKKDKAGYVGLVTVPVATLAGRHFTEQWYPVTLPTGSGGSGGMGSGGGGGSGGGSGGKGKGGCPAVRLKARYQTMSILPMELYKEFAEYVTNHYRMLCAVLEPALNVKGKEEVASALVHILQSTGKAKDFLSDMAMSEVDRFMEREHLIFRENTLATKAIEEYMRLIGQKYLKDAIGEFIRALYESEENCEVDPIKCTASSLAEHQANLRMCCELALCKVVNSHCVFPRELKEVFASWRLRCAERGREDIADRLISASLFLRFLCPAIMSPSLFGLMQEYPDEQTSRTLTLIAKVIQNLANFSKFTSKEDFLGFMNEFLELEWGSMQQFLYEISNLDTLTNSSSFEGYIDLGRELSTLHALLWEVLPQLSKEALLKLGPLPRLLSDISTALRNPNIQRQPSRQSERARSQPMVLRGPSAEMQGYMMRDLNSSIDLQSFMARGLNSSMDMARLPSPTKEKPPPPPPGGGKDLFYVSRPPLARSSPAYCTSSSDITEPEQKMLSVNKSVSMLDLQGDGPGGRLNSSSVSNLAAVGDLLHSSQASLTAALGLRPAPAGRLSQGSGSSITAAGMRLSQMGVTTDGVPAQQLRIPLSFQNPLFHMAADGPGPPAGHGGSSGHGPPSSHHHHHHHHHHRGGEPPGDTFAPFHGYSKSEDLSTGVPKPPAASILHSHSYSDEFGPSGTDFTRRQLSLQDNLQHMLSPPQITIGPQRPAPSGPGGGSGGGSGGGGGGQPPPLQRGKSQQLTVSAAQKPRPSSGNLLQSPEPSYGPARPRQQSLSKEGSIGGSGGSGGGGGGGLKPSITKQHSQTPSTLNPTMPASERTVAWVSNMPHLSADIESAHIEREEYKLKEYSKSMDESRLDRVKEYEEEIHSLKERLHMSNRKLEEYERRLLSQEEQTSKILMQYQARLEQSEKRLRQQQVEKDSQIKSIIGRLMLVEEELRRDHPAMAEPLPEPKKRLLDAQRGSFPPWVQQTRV
Chain of ATP synthase F(1) complex subunit alpha, mitochondrial (Rattus norvegicus) (P15999 whole entry, one chain of several): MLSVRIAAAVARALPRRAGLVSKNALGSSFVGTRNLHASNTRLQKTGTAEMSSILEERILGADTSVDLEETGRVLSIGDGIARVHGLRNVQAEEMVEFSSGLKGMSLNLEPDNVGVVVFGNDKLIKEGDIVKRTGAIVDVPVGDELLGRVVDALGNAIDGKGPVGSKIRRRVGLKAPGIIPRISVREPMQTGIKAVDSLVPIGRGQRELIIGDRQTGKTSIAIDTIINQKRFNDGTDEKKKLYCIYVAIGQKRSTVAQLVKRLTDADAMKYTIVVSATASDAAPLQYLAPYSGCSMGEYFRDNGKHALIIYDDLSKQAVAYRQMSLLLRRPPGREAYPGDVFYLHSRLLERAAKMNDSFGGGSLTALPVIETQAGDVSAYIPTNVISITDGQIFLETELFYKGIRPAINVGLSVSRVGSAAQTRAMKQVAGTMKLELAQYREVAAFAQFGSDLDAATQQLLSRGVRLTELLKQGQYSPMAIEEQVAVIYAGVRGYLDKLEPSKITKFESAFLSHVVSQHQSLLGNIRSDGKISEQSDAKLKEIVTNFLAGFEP
Chain of Inactive tyrosine-protein kinase transmembrane receptor ROR1 (Mus musculus) (Q9Z139 whole entry): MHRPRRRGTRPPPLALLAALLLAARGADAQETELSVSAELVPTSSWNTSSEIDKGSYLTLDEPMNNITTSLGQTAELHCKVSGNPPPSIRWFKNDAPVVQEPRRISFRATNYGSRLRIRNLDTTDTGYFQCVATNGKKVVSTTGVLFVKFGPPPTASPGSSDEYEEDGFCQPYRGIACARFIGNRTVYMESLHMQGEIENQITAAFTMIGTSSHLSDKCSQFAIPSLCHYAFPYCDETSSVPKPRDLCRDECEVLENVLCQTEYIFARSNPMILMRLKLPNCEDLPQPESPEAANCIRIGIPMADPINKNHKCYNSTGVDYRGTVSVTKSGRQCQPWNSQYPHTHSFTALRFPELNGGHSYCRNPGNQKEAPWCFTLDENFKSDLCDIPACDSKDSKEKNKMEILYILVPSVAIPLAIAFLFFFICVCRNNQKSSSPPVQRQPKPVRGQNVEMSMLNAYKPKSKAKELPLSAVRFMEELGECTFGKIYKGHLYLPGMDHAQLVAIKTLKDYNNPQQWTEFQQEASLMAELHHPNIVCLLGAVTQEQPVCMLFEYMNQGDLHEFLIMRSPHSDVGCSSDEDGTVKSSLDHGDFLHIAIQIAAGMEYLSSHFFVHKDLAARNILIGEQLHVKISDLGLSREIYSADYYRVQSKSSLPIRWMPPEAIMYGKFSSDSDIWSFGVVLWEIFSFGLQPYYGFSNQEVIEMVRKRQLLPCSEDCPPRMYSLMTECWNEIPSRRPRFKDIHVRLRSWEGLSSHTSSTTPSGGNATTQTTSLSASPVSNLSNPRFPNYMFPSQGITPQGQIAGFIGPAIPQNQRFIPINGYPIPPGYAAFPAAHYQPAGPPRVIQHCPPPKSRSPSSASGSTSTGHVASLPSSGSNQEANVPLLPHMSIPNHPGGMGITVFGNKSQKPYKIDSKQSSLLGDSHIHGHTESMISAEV
Chain of Creatine kinase M-type (Rattus norvegicus) (P00564 whole entry): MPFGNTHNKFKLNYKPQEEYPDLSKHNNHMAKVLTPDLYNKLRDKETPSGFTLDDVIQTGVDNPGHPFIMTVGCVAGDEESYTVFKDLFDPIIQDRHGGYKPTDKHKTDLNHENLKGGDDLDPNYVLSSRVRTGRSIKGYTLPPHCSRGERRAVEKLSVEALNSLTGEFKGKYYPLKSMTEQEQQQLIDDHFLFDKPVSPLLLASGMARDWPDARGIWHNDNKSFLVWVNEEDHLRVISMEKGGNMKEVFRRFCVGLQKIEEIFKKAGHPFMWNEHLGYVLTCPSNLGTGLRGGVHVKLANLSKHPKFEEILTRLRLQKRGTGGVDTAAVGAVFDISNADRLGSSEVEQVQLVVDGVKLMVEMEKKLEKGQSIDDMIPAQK
Chain of Triosephosphate isomerase (Rattus norvegicus) (P48500 whole entry): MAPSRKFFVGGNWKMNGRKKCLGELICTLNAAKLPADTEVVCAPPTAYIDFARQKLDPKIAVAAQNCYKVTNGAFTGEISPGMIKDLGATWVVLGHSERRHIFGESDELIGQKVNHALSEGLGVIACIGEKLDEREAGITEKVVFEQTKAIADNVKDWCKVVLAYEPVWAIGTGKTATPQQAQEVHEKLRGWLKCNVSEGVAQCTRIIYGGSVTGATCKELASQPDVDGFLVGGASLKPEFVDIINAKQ
Chain of Kinesin light chain 1 (Rattus norvegicus) (P37285 whole entry): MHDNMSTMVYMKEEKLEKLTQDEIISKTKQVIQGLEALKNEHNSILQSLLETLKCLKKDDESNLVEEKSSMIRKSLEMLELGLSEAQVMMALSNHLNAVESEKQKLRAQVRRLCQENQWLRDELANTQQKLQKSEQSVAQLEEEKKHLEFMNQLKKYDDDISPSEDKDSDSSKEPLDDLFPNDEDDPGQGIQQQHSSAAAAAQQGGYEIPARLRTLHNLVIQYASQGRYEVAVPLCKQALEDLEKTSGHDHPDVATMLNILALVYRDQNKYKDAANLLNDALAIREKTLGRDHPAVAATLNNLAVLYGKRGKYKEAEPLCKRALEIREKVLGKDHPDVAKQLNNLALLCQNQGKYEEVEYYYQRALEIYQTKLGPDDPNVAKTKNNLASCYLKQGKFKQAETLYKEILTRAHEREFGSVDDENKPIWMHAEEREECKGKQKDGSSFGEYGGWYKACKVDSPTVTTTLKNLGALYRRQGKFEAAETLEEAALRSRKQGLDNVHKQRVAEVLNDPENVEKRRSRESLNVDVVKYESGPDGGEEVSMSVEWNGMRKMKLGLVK

- Activity [1]: Active
- Activity [2]: Active
- fold change (FC) [3]: 1.64
- fold change (FC) [4]: 5.52
- fold change (FC) [5]: 6.16
- fold change (FC) [6]: 6.46
- Activity [7]: Active
- Activity [8]: Active
- Activity [9]: Active
- Activity [10]: Active
- Activity [11]: Active
- Activity [12]: Active
- Activity [13]: Active
- Activity [14]: Active
- Activity [15]: Active
- Activity [16]: Active
- Activity [17]: Active
- fold change (FC) [17]: 2.26
Compound: CCc1ccc(CCOc2ccc(CC3SC(=O)NC3=O)cc2)nc1 (stereo not given)

- Activity [1]: Active
- Activity [2]: Active
- fold change (FC) [18]: 2.08
- fold change (FC) [7]: 2.12
- fold change (FC) [19]: 2.56
- fold change (FC) [20]: 2.94
- fold change (FC) [8]: 3.1
- fold change (FC) [21]: 3.22
- fold change (FC) [22]: 3.74
- fold change (FC) [23]: 3.92
- Activity [24]: Active
- Activity [25]: Active
- Activity [26]: Active
- Activity [27]: Active
- Activity [16]: Active
- Activity [17]: Active
- Activity [28]: Active
Compound: CN(CCOc1ccc(CC2SC(=O)NC2=O)cc1)c1ccccn1 (stereo not given)
